According to PubChem BioAssay (NCI):
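Cells were grown in 96-well plates and exposed to each compound for 48 hours at five concentrations; endpoints were interpolated linearly between bracketing concentrations, or set to the highest concentration if not reached. GI50 is the concentration that inhibits growth by half. At the TGI there is no net growth.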

Assays:
Assay in all cases: NCI anticancer screen, dose series, 48 h
[1] = tested on: NCI-H226 lung
[2] = tested on: RPMI-8226 leukemia
[3] = tested on: HCC-2998 colon
[4] = tested on: NCI/ADR-RES ovarian
[5] = tested on: KM12 colon
[6] = tested on: SK-MEL-5 melanoma
[7] = tested on: DU-145 prostate
[8] = tested on: OVCAR-5 ovarian
[9] = tested on: HS 578T breast
[10] = tested on: ACHN renal
[11] = tested on: SNB-75 CNS
[12] = tested on: SF-539 CNS
[13] = tested on: TK-10 renal
[14] = tested on: SK-MEL-2 melanoma
[15] = tested on: U251 CNS
[16] = tested on: A549 NSCLC
[17] = tested on: MOLT-4 leukemia
[18] = tested on: A498 renal
[19] = tested on: UACC-62 melanoma
[20] = tested on: PC-3 prostate
[21] = tested on: COLO 205 colon
[22] = tested on: MALME-3M melanoma
[23] = tested on: SN12C renal
[24] = tested on: UO-31 renal
[25] = tested on: SK-MEL-28 melanoma
[26] = tested on: OVCAR-8 ovarian
[27] = tested on: NCI-H23 lung
[28] = tested on: SNB-19 CNS
[29] = tested on: SW-620 colon
[30] = tested on: M14 melanoma
[31] = tested on: 786-0 renal
[32] = tested on: OVCAR-4 ovarian
[33] = tested on: SK-OV-3 ovarian
[34] = tested on: BT-549 breast
[35] = tested on: SF-295 CNS
[36] = tested on: OVCAR-3 ovarian
[37] = tested on: SF-268 CNS
[38] = tested on: HL-60(TB) leukemia
[39] = tested on: NCI-H460 lung
[40] = tested on: K-562 leukemia
[41] = tested on: IGROV1 ovarian
[42] = tested on: HCT-116 colon
[43] = tested on: HOP-62 NSCLC
[44] = tested on: LOX IMVI melanoma
[45] = tested on: UACC-257 melanoma
[46] = tested on: CCRF-CEM leukemia
[47] = tested on: T-47D breast
[48] = tested on: MDA-MB-435
[49] = tested on: RXF 393 renal
[50] = tested on: HT29 colon
[51] = tested on: HCT-15 colon
[52] = tested on: EKVX NSCLC
[53] = tested on: HOP-92 NSCLC
[54] = tested on: NCI-H522 lung
[55] = tested on: SR leukemia
[56] = tested on: MDA-MB-231 breast
[57] = tested on: CAKI-1 renal
[58] = tested on: MCF7 breast

**Q.** With `CCn1ccnc1C(=O)/C=C/c1ccc(CC(=O)Nc2ccc(F)cc2)cc1` as the compound, how does the GI50 [1] read?
**A.** 3.61 µM

**Q.** What about the TGI [1] of the same compound?
**A.** 9.53 µM

**Q.** And the GI50 [2]?
**A.** 2.28 µM

**Q.** And the TGI [2]?
**A.** 8.09 µM

**Q.** And the GI50 [3]?
**A.** 5.1 µM

**Q.** And the TGI [3]?
**A.** > 16.7 µM

**Q.** And the GI50 [4]?
**A.** 5.37 µM

**Q.** And the TGI [4]?
**A.** > 16.7 µM

**Q.** And the GI50 [5]?
**A.** 3.06 µM

**Q.** What about the TGI [5] of the same compound?
**A.** 8.33 µM

**Q.** What about the GI50 [6] of the same compound?
**A.** 5.74 µM

**Q.** And the TGI [6]?
**A.** > 16.7 µM

**Q.** And the GI50 [7]?
**A.** 4.45 µM

**Q.** What about the TGI [7] of the same compound?
**A.** > 16.7 µM

**Q.** And the GI50 [8]?
**A.** 4.97 µM

**Q.** What about the TGI [8] of the same compound?
**A.** > 16.7 µM

**Q.** And the GI50 [9]?
**A.** 5.36 µM

**Q.** And the TGI [9]?
**A.** > 16.7 µM

**Q.** What about the GI50 [10] of the same compound?
**A.** 3.95 µM

**Q.** What about the TGI [10] of the same compound?
**A.** 11.7 µM

**Q.** And the GI50 [11]?
**A.** 2.81 µM

**Q.** What about the TGI [11] of the same compound?
**A.** > 16.7 µM

**Q.** And the GI50 [12]?
**A.** 2.93 µM

**Q.** And the TGI [12]?
**A.** 6.15 µM

**Q.** And the GI50 [13]?
**A.** 6.01 µM

**Q.** What about the TGI [13] of the same compound?
**A.** > 16.7 µM

**Q.** What about the GI50 [14] of the same compound?
**A.** 6.26 µM

**Q.** What about the TGI [14] of the same compound?
**A.** > 16.7 µM

**Q.** What about the GI50 [15] of the same compound?
**A.** 1.88 µM

**Q.** And the TGI [15]?
**A.** 7.94 µM

**Q.** And the GI50 [16]?
**A.** 4.16 µM

**Q.** And the TGI [16]?
**A.** 12.7 µM

**Q.** What about the GI50 [17] of the same compound?
**A.** 5.28 µM

**Q.** And the TGI [17]?
**A.** 14.5 µM

**Q.** What about the GI50 [18] of the same compound?
**A.** 3.73 µM

**Q.** What about the TGI [18] of the same compound?
**A.** 15.5 µM

**Q.** What about the GI50 [19] of the same compound?
**A.** 2.83 µM

**Q.** What about the TGI [19] of the same compound?
**A.** 6.57 µM

**Q.** What about the GI50 [20] of the same compound?
**A.** 7.06 µM

**Q.** And the TGI [20]?
**A.** > 16.7 µM

**Q.** What about the GI50 [21] of the same compound?
**A.** 4.29 µM

**Q.** And the TGI [21]?
**A.** 13.1 µM

**Q.** And the GI50 [22]?
**A.** > 16.7 µM

**Q.** And the TGI [22]?
**A.** > 16.7 µM

**Q.** And the GI50 [23]?
**A.** 3.71 µM

**Q.** What about the TGI [23] of the same compound?
**A.** > 16.7 µM

**Q.** And the GI50 [24]?
**A.** 2.65 µM

**Q.** What about the TGI [24] of the same compound?
**A.** 10.5 µM

**Q.** What about the GI50 [25] of the same compound?
**A.** 4.92 µM

**Q.** And the TGI [25]?
**A.** > 16.7 µM

**Q.** And the GI50 [26]?
**A.** 4.86 µM

**Q.** And the TGI [26]?
**A.** > 16.7 µM

**Q.** And the GI50 [27]?
**A.** 4.25 µM

**Q.** And the TGI [27]?
**A.** > 16.7 µM

**Q.** What about the GI50 [28] of the same compound?
**A.** 3.58 µM

**Q.** And the TGI [28]?
**A.** > 16.7 µM

**Q.** And the GI50 [29]?
**A.** 4.29 µM

**Q.** What about the TGI [29] of the same compound?
**A.** > 16.7 µM

**Q.** What about the GI50 [30] of the same compound?
**A.** 3.02 µM

**Q.** And the TGI [30]?
**A.** 8.06 µM

**Q.** And the GI50 [31]?
**A.** 4.36 µM

**Q.** And the TGI [31]?
**A.** > 16.7 µM

**Q.** What about the GI50 [32] of the same compound?
**A.** 3.31 µM

**Q.** And the TGI [32]?
**A.** > 16.7 µM

**Q.** And the GI50 [33]?
**A.** 6.97 µM

**Q.** What about the TGI [33] of the same compound?
**A.** > 16.7 µM

**Q.** What about the GI50 [34] of the same compound?
**A.** 2.94 µM

**Q.** What about the TGI [34] of the same compound?
**A.** 7.03 µM

**Q.** What about the GI50 [35] of the same compound?
**A.** 4.41 µM

**Q.** And the TGI [35]?
**A.** > 16.7 µM

**Q.** And the GI50 [36]?
**A.** 3.92 µM

**Q.** What about the TGI [36] of the same compound?
**A.** > 16.7 µM

**Q.** And the GI50 [37]?
**A.** 3.81 µM

**Q.** What about the TGI [37] of the same compound?
**A.** > 16.7 µM

**Q.** What about the GI50 [38] of the same compound?
**A.** 3.18 µM

**Q.** What about the TGI [38] of the same compound?
**A.** 10.9 µM

**Q.** What about the GI50 [39] of the same compound?
**A.** 2.64 µM

**Q.** And the TGI [39]?
**A.** 6.51 µM

**Q.** What about the GI50 [40] of the same compound?
**A.** 2.06 µM

**Q.** What about the TGI [40] of the same compound?
**A.** > 16.7 µM

**Q.** What about the GI50 [41] of the same compound?
**A.** 4.63 µM

**Q.** What about the TGI [41] of the same compound?
**A.** > 16.7 µM

**Q.** What about the GI50 [42] of the same compound?
**A.** 1.84 µM

**Q.** And the TGI [42]?
**A.** 4.4 µM

**Q.** And the GI50 [43]?
**A.** 3.92 µM

**Q.** What about the TGI [43] of the same compound?
**A.** 9.93 µM

**Q.** And the GI50 [44]?
**A.** 0.561 µM

**Q.** And the TGI [44]?
**A.** 2.83 µM

**Q.** What about the GI50 [45] of the same compound?
**A.** 14 µM

**Q.** And the TGI [45]?
**A.** > 16.7 µM

**Q.** And the GI50 [46]?
**A.** 4.35 µM

**Q.** What about the TGI [46] of the same compound?
**A.** 16.3 µM

**Q.** And the GI50 [47]?
**A.** 3.79 µM

**Q.** And the TGI [47]?
**A.** > 16.7 µM

**Q.** And the GI50 [48]?
**A.** 4.58 µM

**Q.** What about the TGI [48] of the same compound?
**A.** > 16.7 µM

**Q.** And the GI50 [49]?
**A.** 3.39 µM

**Q.** And the TGI [49]?
**A.** 8.66 µM

**Q.** What about the GI50 [50] of the same compound?
**A.** 5.64 µM

**Q.** What about the TGI [50] of the same compound?
**A.** > 16.7 µM

**Q.** What about the GI50 [51] of the same compound?
**A.** 1.93 µM

**Q.** And the TGI [51]?
**A.** 8.96 µM

**Q.** What about the GI50 [52] of the same compound?
**A.** 3.59 µM

**Q.** What about the TGI [52] of the same compound?
**A.** 12.2 µM

**Q.** What about the GI50 [53] of the same compound?
**A.** 3.32 µM

**Q.** And the TGI [53]?
**A.** 8.83 µM

**Q.** What about the GI50 [54] of the same compound?
**A.** 3.92 µM

**Q.** And the TGI [54]?
**A.** 10.2 µM

**Q.** What about the GI50 [55] of the same compound?
**A.** 0.529 µM

**Q.** And the TGI [55]?
**A.** 11.1 µM

**Q.** What about the GI50 [56] of the same compound?
**A.** 4.36 µM

**Q.** And the TGI [56]?
**A.** > 16.7 µM

**Q.** What about the GI50 [57] of the same compound?
**A.** 5.08 µM

**Q.** What about the TGI [57] of the same compound?
**A.** > 16.7 µM

**Q.** What about the GI50 [58] of the same compound?
**A.** 2.52 µM

**Q.** And the TGI [58]?
**A.** > 16.7 µM
